This test addresses CFTR-mediated chloride transport in human intestinal epithelial enteroid cells (Homo sapiens, UniProt P13569). Nature of the test: Membrane potential dye, Enteroid Assay A. The format is cell-based. The conditions noted are these: for pEC50: read-out: Ent. A EC50. The protocol: Base medium (ADF+++) consisted of Advanced DMEM/Ham's F12, 2 mM Glutamax, 10 mM HEPES, […] penicillin/streptomycin.
Bath 1 Buffer consisted of 1 mM MgCl2, 160 mM NaCl, 4.5 mM KCl, 10 mM HEPES, 10 mM Glucose, 2 mM CaCl2.
Chloride Free Buffer consisted of 1 mM Magnesium Gluconate, 2 mM Calcium Gluconate, 4.5 mM Potassium Gluconate, 160 mM Sodium Gluconate, 10 mM HEPES, 10 mM Glucose.
Bath1 Dye Solution consisted of Bath 1 Buffer, 0.04% Pluronic F127, 20 μM Methyl Oxonol, 30 μM CaCCinh-A01, 30 μM Chicago Sky Blue.
Chloride Free Dye Solution consisted of Chloride Free Buffer, 0.04% Pluronic F127, 20 μM Methyl Oxonol, 30 μM CaCCinh-A01, 30 μM Chicago Sky Blue.
3. Enteroid Cell Harvesting and Seeding
Cells were recovered in cell recovery solution, collected by centrifugation at 650 rpm for 5 min at 4° C., resuspended in TryPLE and incubated for 5 min at 37° C. Cells were then collected by centrifugation at 650 rpm for 5 min at 4° C. and resuspended in IEMM containing 10 μM ROCK inhibitor (RI).
4. Membrane Potential Dye, Enteroid Assay A
Briefly, cells were washed 5 times in Bath 1 Buffer. Bath 1 Dye Solution was added, and the cells were incubated for 25 min at room temperature. Following dye incubation, cells were washed 3 times in Chloride Free Dye Solution. Chloride transport was initiated by addition of Chloride Free Dye Stimulation Solution and the fluorescence signal was read for 15 min. […] Chloride transport was then expressed as a percentage of the chloride transport following treatment with 3 μM N-[(6-amino-2-pyridyl)sulfonyl]-6-(3-fluoro-5-isobutoxy-phenyl)-2-[(4S)-2,2,4-trimethylpyrrolidin-1-yl]pyridine-3-carboxamide, 3 μM (R)-1-(2,2-difluorobenzo[d][1,3]dioxol-5-yl)-N-(1-(2,3-dihydroxypropyl)-6-fluoro-2-(1-hydroxy-2-methylpropan-2-yl)-1H-indol-5-yl)cyclopropanecarboxamide and 300 nM acute N-[2,4-bis(1,1-dimethylethyl)-5-hydroxyphenyl]-1,4-dihydro-4-oxoquinoline-3-carboxamide triple combination control (% Activity).

[1] abbreviates: percentage of chloride transport of triple combination control (3 μM N-[(6-amino-2-pyridyl)sulfonyl]-6-(3-fluoro-5-isobutoxy-phenyl)-2-[(4S)-2,2,4-trimethylpyrrolidin-1-yl]pyridine-3-carboxamide based).
The mark [2] stands for this setting: enteroid cells incubated with test compound 18-24 hours, acute 10 μM forskolin and 300 nM N-[2,4-bis(1,1-dimethylethyl)-5-hydroxyphenyl]-1,4-dihydro-4-oxoquinoline-3-carboxamide.

pEC50: −log10 of the molar value. Like-named read-outs stand apart in the source and are kept apart here.

Sequence of CFTR-mediated chloride transport in human intestinal epithelial enteroid cells (P13569 with tags, fused parts or gaps DEL508-508): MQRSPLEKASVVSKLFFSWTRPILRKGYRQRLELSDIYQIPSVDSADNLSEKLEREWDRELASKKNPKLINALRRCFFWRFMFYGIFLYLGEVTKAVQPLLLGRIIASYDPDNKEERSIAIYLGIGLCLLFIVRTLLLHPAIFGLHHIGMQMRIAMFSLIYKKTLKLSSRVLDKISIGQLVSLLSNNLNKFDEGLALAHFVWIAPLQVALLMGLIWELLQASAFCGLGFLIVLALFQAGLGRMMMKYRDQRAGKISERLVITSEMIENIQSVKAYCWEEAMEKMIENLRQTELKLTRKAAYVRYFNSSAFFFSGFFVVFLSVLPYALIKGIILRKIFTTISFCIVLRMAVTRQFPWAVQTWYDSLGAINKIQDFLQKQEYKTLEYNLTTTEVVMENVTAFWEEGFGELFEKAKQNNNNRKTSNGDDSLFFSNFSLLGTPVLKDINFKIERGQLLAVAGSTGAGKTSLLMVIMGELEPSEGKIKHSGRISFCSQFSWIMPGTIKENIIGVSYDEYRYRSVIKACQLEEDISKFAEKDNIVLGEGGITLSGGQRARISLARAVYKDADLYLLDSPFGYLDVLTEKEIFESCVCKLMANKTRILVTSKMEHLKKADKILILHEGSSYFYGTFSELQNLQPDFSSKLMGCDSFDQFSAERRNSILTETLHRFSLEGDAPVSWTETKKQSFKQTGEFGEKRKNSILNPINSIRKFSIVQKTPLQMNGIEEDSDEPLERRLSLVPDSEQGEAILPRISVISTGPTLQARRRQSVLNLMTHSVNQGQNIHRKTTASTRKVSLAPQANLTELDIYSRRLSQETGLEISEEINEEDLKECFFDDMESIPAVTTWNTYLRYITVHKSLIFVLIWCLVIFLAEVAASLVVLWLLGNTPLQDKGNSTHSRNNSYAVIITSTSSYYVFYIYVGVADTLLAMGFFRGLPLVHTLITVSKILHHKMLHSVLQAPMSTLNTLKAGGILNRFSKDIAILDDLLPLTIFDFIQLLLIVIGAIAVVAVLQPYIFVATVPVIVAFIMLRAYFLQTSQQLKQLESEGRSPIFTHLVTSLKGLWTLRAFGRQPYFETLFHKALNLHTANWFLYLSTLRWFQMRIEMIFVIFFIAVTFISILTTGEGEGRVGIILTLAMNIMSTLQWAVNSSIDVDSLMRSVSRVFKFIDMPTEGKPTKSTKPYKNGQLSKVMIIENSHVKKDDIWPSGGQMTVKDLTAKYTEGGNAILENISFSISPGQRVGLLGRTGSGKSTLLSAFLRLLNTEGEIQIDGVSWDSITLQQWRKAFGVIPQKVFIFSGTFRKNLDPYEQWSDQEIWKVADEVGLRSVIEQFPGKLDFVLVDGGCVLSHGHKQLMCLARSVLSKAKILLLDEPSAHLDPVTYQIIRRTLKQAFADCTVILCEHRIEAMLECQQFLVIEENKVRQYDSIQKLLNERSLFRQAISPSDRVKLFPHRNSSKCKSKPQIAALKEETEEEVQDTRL

In the case of `Cc1cccc(C)c1-c1cc2nc(n1)NS(=O)(=O)c1cccc(c1)C(=O)N1CC3CCCN(C)C3[C@@H](C1)O2` (single isomer, unassigned) [Compound 200, 12-(2,6-dimethylphenyl)-18-methyl-15-oxa-8λ^6-thia-1,9,11,18,25-pentaazapentacyclo[14.7.1.13,7.110,14.017,22]hexacosa-3,5,7(26),10(25),11,13-hexaene-2,8,8-trione], the “Ent. A Max Activity (%)” value under setting [1] is “+ (+ is <300%)”.

In the case of `Cc1cccc(C)c1-c1cc2nc(n1)NS(=O)(=O)c1cccc(c1)C(=O)N1CC(O2)C2CCCN(C)C2C1` (single isomer, unassigned) [Compound 201, 12-(2,6-Dimethylphenyl)-21-methyl-15-oxa-8λ^6-thia-1,9,11,21,25-pentaazapentacyclo[14.7.1.13,7.110,14.017,22]hexacosa-3,5,7(26),10(25),11,13-hexaene-2,8,8-trione], where the note is “Enteroid Assay A”, the “Ent. A Max Activity (%)” value is “++ (++ is 30-60%)” and the pEC50 is 4.52 to 5.52.

`Cc1cccc(C)c1-c1cc2nc(n1)NS(=O)(=O)c1cccc(c1)C(=O)N1CC(O2)C2CCCN(C)C2C1` (single isomer, unassigned) [Compound 202, 12-(2,6-Dimethylphenyl)-21-methyl-15-oxa-8λ^6-thia-1,9,11,21,25-pentaazapentacyclo[14.7.1.13,7.110,14.017,22]hexacosa-3,5,7(26),10(25),11,13-hexaene-2,8,8-trione]: the “Ent. A Max Activity (%)” value (Enteroid Assay A) is listed as “+ (+ is <30%)”.

Regarding `Cc1cccc(C)c1-c1cc2nc(n1)NS(=O)(=O)c1cccc(c1)C(=O)N1CC3C(CCCN3C)[C@@H](C1)O2` (single isomer, unassigned) [Compound 203, 12-(2,6-dimethylphenyl)-21-methyl-15-oxa-8λ^6-thia-1,9,11,21,25-pentaazapentacyclo[14.7.1.13,7.110,14.017,22]hexacosa-3,5,7(26),10(25),11,13-hexaene-2,8,8-trione], under “Enteroid Assay A”, the “Ent. A Max Activity (%)” value was “++ (++ is 30-60%)” and the pEC50 is 4.52 to 5.52.

On to `Cc1cccc(C)c1-c1cc2nc(n1)NS(=O)(=O)c1cccc(c1)C(=O)N1CC3C(CCCN3C)[C@H](C1)O2` (single isomer, unassigned) [Compound 204, 12-(2,6-dimethylphenyl)-21-methyl-15-oxa-8λ^6-thia-1,9,11,21,25-pentaazapentacyclo[14.7.1.13,7.110,14.017,22]hexacosa-3,5,7(26),10(25),11,13-hexaene-2,8,8-trione], for which the pEC50 (Enteroid Assay A) is 5.52 to 6.00.

`Cc1cccc(C)c1-c1cc2nc(n1)NS(=O)(=O)c1cccc(c1)C(=O)N1Cc3ccccc3C[C@H](C1)O2` (single isomer, unassigned) [Compound 216, 12-(2,6-dimethylphenyl)-15-oxa-8λ^6-thia-1,9,11,26-tetraazapentacyclo[14.8.1.13,7.110,14.018,23]heptacosa-3(27),4,6,10,12,14(26),18,20,22-nonaene-2,8,8-trione]: the pEC50 under setting [2] is 5.52 to 6.00. Moreover, under setting [1], the “Ent. A Max Activity (%)” value was “+++ (+++ is >60%)”.

Consider `Cc1cccc(C)c1-c1cc2nc(n1)NS(=O)(=O)c1cccc(c1)C(=O)N1CCc3ccccc3C(C1)O2` (single isomer, unassigned) [Compound 221, 12-(2,6-dimethylphenyl)-15-oxa-8λ^6-thia-1,9,11,26-tetraazapentacyclo[14.8.1.13,7.110,14.017,22]heptacosa-3(27),4,6,10(26),11,13,17,19,21-nonaene-2,8,8-trione], for which the pEC50 (Enteroid Assay A) was greater than 6.00.

As to `Cc1cccc(C)c1-c1cc2nc(n1)NS(=O)(=O)c1cccc(c1)C(=O)N1CC(CC(c3ccccc3)C1)O2` (single isomer, unassigned) [Compound 223, 18-(2,6-dimethylphenyl)-5-phenyl-2-oxa-14λ^6-thia-7,15,17,20-tetraazatetracyclo[14.3.1.13,7.19,13]docosa-1(19),9(21),10,12,16(20),17-hexaene-8,14,14-trione], the pEC50 under setting [2] is greater than 6.00. For the same molecule, the “Ent. A Max Activity (%)” value under setting [1] is “++ (++ is 30-60%)”.

Take `Cc1cccc(C)c1-c1cc2nc(n1)NS(=O)(=O)c1cccc(c1)C(=O)N1CC(CC(c3ccccc3)C1)O2` (single isomer, unassigned) [Compound 224, 18-(2,6-dimethylphenyl)-5-phenyl-2-oxa-14λ^6-thia-7,15,17,20-tetraazatetracyclo[14.3.1.13,7.19,13]docosa-1(19),9(21),10,12,16(20),17-hexaene-8,14,14-trione]: the negative logarithm of the EC50 (pEC50) under setting [2] is greater than 6.00. In addition, the “Ent. A Max Activity (%)” value under setting [1] was “++ (++ is 30-60%)”.

As to `Cc1cccc(C)c1-c1cc2nc(n1)NS(=O)(=O)c1cccc(c1)C(=O)N1CC(CCC1c1ccccc1)O2` (single isomer, unassigned) [Compound 225, 18-(2,6-dimethylphenyl)-6-phenyl-2-oxa-14λ^6-thia-7,15,17,20-tetraazatetracyclo[14.3.1.13,7.19,13]docosa-1(19),9(21),10,12,16(20),17-hexaene-8,14,14-trione], under setting [2], the pEC50 was greater than 6.00. Moreover, under setting [1], the “Ent. A Max Activity (%)” value is recorded as “++ (++ is 30-60%)”.

`Cc1cccc(C)c1-c1cc2nc(n1)NS(=O)(=O)c1cccc(c1)C(=O)N1CC(CCC1c1ccccc1)O2` (single isomer, unassigned) [Compound 226, 18-(2,6-Dimethylphenyl)-6-phenyl-2-oxa-14λ^6-thia-7,15,17,20-tetraazatetracyclo[14.3.1.13,7.19,13]docosa-1(19),9(21),10,12,16(20),17-hexaene-8,14,14-trione]: under setting [2], the pEC50 is greater than 6.00. Moreover, the “Ent. A Max Activity (%)” value under setting [1] is given as “++ (++ is 30-60%)”.

In the case of `Cc1cccc(C)c1-c1cc2nc(n1)NS(=O)(=O)c1cccc(c1)C(=O)N1CCCC(O2)C1CC(C)C` (single isomer, unassigned) [Compound 230, 18-(2,6-Dimethylphenyl)-22-(2-methylpropyl)-2-oxa-14λ^6-thia-7,15,17,20-tetraazatetracyclo[14.3.1.13,7.19,13]docosa-1(20),9(21),10,12,16,18-hexaene-8,14,14-trione], the negative-log EC50 (pEC50) under setting [2] was greater than 6.00. Under setting [1], the “Ent. A Max Activity (%)” value was “+++ (+++ is >60%)”.

On to `Cc1cccc(C)c1-c1cc2nc(n1)NS(=O)(=O)c1cccc(c1)C(=O)N1CCCC(O2)C1CC(C)C` (single isomer, unassigned) [Compound 231, 18-(2,6-Dimethylphenyl)-22-(2-methylpropyl)-2-oxa-14λ^6-thia-7,15,17,20-tetraazatetracyclo[14.3.1.13,7.19,13]docosa-1(20),9(21),10,12,16,18-hexaene-8,14,14-trione], for which the pEC50 under setting [2] was greater than 6.00. For the same molecule, the “Ent. A Max Activity (%)” value under setting [1] is given as “+++ (+++ is >60%)”.

`Cc1cccc(C)c1-c1cc2nc(n1)NS(=O)(=O)c1cccc(c1)C(=O)N1CC(C)(C)CC(O2)C1CC(C)C` (single isomer, unassigned) [Compound 232, 18-(2,6-Dimethylphenyl)-5,5-dimethyl-22-(2-methylpropyl)-2-oxa-14λ^6-thia-7,15,17,20-tetraazatetracyclo[14.3.1.13,7.19,13]docosa-1(20),9(21),10,12,16,18-hexaene-8,14,14-trione]: under “Enteroid Assay A”, the pEC50 was greater than 6.00.

Regarding `Cc1cccc(C)c1-c1cc2nc(n1)NS(=O)(=O)c1cccc(c1)C(=O)N1CC(C)(C)CC(O2)C1CC(C)C` (single isomer, unassigned) [Compound 233, 18-(2,6-dimethylphenyl)-5,5-dimethyl-22-(2-methylpropyl)-2-oxa-14λ^6-thia-7,15,17,20-tetraazatetracyclo[14.3.1.13,7.19,13]docosa-1(20),9(21),10,12,16,18-hexaene-8,14,14-trione], the pEC50 (Enteroid Assay A) is greater than 6.00.

`Cc1cccc(C)c1-c1cc2nc(n1)NS(=N)(=O)c1cccc(c1)C(=O)N1CCN(CCC(C)(C)C)C[C@H](C1)O2` (single isomer, unassigned) [Compound 244, 18-(3,3-dimethylbutyl)-12-(2,6-dimethylphenyl)-8-imino-15-oxa-8λ^6-thia-1,9,11,18,22-pentaazatetracyclo[14.4.1.13,7.110,14]tricosa-3,5,7(23),10,12,14(22)-hexaene-2,8-dione]: the “Ent. A Max Activity (%)” value (Enteroid Assay A) is on record as “+ (+ is <30%)”.

With `Cc1cccc(C)c1-c1cc2nc(n1)NS(=O)(=O)c1cccc(c1)C(=O)N1C[C@@H](CN(CC(F)(F)F)CC1CC(C)C)O2` (stereo in doubt) [Compound 105, (16R,20R)-12-(2,6-Dimethylphenyl)-20-(2-methylpropyl)-18-(2,2,2-trifluoroethyl)-15-oxa-8λ^6-thia-1,9,11,18,22-pentaazatetracyclo[14.4.1.13,7.110,14]tricosa-3(23),4,6,10,12,14(22)-hexaene-2,8,8-trione], the “Ent. A Max Activity (%)” value (Enteroid Assay A) is listed as “+ (+ is <30%)”.

As a reminder, the pEC50 is the negative decadic logarithm of the EC50, by convention in mol/L.

The values above are taken from patent US20240018161A1, “MODULATORS OF CYSTIC FIBROSIS TRANSMEMBRANE CONDUCTANCE REGULATOR” (VERTEX PHARMACEUTICALS INCORPORATED, priority 2020, published 2024).
